Test results taken from patent US12479848B2, “Substituted fused heteroaromatic bicyclic compounds as kinase inhibitors and the use thereof” (IMPACT THERAPEUTICS (SHANGHAI), INC, priority 2019, dated 2025).

Experiments:
[1] = test system: human lung cancer cell NCI-H460; assay: MTT proliferation assay, NCI-H460; assay type: cell-based; conditions: Homo sapiens, NCI-H460, 96 h, 4 days, read-out: IC50 (nM), inhibition of proliferation of NCI-H460
Experimental: (§1) The cells were seeded into 96-well cell culture plate with a density of 2000/4000 cells per well and incubated overnight in a 5% CO2 incubator at 37° C. […] 5 L diluent of each concentration was added to 120 μL of medium (25 times diluted) and mixed by shaking. The overnight cell plates were taken and the culture medium was removed, 195 μL of fresh medium was added to each well, and 5 μL of diluted medium containing the corresponding concentration of the test compound was added respectively (the final concentration of DMSO is 1%), and the culture plate was then placed in a 5% CO2 incubator at 37° C. for 4 days. After removing the original solution, 100 μL of fresh serum-free DMEM medium containing MTT (0.5 mg/mL) was added to each well, the culture was continued. […] Cell viability (%)=(ODcompound−ODbackground)/(ODDMSO−ODbackground)×100. GraphPad Prism 6.0 was used to analyze the data. The inhibitory activity of compounds on cell proliferation was plotted based on cell viability and the logarithm of compound concentration.

ATR/ATRIP enzyme = target: T1, ATR/ATRIP enzyme (Homo sapiens, UniProt Q13535); assay: ATR enzyme activity experiment (HTRF); assay type: biochemical; conditions: for inhibition at 0.05 µM: read-out: Inh %, inhibitory effects on ATR kinase activity at 50 nM; for IC50: HTRF, p53 substrate, 30 minutes at room temperature
T1 construct: purchased Eurofins 14-953
T1 sequence (Q13535 whole entry): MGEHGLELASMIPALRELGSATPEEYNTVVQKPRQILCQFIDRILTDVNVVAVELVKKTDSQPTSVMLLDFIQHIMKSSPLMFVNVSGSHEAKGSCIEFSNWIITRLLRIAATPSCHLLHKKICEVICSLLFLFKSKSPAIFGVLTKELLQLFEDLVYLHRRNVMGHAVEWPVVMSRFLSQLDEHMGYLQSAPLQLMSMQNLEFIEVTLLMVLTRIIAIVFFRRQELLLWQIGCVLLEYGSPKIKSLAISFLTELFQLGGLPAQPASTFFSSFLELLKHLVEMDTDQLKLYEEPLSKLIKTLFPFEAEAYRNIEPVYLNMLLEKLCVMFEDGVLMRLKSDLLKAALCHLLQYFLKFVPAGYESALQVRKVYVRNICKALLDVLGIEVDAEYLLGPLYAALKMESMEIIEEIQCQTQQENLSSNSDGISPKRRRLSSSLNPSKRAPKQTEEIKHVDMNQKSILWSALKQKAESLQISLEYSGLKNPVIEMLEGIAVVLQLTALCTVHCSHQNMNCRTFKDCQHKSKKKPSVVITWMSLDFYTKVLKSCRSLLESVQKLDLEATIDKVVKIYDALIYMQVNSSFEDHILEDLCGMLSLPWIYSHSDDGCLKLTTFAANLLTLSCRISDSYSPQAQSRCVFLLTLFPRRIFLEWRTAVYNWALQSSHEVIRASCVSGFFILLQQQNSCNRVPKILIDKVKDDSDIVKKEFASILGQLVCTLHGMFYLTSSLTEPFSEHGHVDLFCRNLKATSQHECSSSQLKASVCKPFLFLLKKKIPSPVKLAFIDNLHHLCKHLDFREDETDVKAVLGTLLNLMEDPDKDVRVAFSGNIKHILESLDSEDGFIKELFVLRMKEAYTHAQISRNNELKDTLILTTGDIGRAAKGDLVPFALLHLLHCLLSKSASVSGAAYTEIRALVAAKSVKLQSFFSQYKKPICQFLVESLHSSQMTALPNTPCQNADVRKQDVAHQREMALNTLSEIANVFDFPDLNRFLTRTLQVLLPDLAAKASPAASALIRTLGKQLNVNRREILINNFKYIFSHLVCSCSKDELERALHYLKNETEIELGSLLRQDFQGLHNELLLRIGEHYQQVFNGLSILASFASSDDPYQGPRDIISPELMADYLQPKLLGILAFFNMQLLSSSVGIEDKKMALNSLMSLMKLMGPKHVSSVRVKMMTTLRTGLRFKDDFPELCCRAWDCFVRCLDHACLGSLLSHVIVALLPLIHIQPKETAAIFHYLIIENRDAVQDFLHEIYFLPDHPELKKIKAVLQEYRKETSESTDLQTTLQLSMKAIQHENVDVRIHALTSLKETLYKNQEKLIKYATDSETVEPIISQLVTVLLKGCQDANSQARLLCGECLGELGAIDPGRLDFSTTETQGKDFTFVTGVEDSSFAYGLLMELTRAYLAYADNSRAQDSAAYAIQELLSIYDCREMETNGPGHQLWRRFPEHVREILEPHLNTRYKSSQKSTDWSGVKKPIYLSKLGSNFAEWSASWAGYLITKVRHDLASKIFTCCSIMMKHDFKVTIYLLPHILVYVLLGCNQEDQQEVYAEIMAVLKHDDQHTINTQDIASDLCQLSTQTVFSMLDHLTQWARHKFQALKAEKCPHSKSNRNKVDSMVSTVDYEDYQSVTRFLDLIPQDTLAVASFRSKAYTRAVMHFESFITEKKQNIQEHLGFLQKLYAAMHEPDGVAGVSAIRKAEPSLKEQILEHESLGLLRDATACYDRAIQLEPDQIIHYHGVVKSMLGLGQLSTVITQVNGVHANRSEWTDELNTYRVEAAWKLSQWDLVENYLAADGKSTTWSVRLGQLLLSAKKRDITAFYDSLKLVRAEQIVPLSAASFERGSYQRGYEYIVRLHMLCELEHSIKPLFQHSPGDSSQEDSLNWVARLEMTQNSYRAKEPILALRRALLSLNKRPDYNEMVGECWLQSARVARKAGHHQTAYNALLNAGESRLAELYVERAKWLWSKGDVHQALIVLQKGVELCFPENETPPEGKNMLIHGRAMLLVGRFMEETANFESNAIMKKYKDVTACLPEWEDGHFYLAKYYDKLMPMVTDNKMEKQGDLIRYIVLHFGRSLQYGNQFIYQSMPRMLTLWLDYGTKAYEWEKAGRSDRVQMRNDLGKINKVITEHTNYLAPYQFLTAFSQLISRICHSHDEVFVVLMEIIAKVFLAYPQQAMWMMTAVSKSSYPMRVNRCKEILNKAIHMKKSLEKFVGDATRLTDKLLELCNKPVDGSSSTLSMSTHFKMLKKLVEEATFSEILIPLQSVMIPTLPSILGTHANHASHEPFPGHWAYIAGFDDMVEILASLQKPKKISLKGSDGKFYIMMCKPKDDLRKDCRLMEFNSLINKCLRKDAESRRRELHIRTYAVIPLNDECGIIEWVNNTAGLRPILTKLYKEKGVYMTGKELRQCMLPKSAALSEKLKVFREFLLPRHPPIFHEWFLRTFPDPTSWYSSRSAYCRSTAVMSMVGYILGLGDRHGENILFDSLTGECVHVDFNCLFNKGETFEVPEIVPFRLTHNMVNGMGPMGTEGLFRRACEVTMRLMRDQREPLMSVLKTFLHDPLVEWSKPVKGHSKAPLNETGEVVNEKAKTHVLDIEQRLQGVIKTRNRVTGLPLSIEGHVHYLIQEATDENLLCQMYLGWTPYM
T1 sequence (Q8WXE1 whole entry partner): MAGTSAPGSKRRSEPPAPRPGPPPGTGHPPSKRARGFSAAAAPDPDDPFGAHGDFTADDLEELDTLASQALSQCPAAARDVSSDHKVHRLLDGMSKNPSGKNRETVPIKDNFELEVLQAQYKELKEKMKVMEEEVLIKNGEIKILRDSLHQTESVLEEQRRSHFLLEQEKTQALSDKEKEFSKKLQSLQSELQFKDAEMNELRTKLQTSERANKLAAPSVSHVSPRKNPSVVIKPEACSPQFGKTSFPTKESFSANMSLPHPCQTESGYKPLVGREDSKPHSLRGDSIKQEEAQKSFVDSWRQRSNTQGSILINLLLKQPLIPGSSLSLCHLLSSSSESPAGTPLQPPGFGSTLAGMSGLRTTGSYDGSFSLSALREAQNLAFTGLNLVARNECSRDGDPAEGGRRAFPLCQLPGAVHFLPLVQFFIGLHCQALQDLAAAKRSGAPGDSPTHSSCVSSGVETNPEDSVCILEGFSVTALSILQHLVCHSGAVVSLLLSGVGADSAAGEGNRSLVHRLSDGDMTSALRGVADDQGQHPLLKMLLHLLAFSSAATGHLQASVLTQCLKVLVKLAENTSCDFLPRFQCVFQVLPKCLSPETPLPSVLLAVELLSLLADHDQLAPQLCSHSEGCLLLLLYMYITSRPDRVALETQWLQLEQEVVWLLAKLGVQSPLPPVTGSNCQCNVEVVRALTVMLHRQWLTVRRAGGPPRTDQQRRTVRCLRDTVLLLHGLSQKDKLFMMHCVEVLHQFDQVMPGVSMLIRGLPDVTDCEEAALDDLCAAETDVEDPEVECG
Experimental: The test compound was diluted to a 4× final concentration with reaction buffer (25 mM HEPES (pH8.0), 10 mM MnCl2, 1% glycerol, 0.01% Brij-35, 5 mM DTT and 0.1% BSA). […] The mixture was centrifuged at 1000 rpm for 1 minute, and reacted at room temperature protected from light for 30 minutes. Then 5 μL of EDTA stop solution (250 mM) was added to stop the reaction. […] Data were analyzed using GraphPad Prism6.0, and fitted using the curve equation: Y=Bottom+(Top−Bottom)/(1+10^((Log IC50−X)*HillSlope)) and IC50 values were calculated.

[2] = test system: human colon cancer cell LoVo; assay: MTT proliferation assay, LoVo; assay type: cell-based; conditions: Homo sapiens, LoVo, 96 h, 4 days, read-out: IC50 (nM), inhibition of proliferation of LoVo
Experimental: as §1, with “5 μL” for “5 L”, “viability (%)=(ODcompound−ODbackground)/(ODDMSO-ODbackground)×100.” for “viability (%)=(ODcompound−ODbackground)/(ODDMSO−ODbackground)×100.”

Structure (SMILES) | IC50 [1] [nM] | inhibition at 0.05 µM (ATR/ATRIP enzyme) [%] | IC50 [2] [nM] | IC50 (ATR/ATRIP enzyme) [µM]
C[C@@H]1COCCN1c1cc(-c2ccnn2C)c2cnc(-c3ccc[nH]3)n2n1 [Example 22, (R)-3-methyl-4-(4-(1-methyl-1H-pyrazol-5-yl)-7-(1H-pyrrol-2-yl)imidazo[1,5-b]pyridazin-2-yl)morpholine] | 1150 |  | 854 | 0.00206
C[C@@H]1COCCN1c1cc(-c2cncn2C)c2ncc(-c3ccn[nH]3)n2n1 [Example 5, (R)-3-methyl-4-(8-(1-methyl-1H-imidazol-5-yl)-3-(1H-pyrazol-5-yl)imidazo[1,2-b]pyridazin-6-yl)morpholine] | 1610 |  | 557 | 0.0589
C[C@@H]1COCCN1c1cc(-c2ccnn2C)c2cnc(-c3c[nH]cn3)n2n1 [Example 23, (R)-4-(7-(1H-imidazol-4-yl)-4-(1-methyl-1H-pyrazol-5-yl)imidazo[1,5-b]pyridazin-2-yl)-3-methylmorpholine] | 1800 |  | 1530 | > 1
C[C@@H]1COCCN1c1cc(-c2ccnn2C)c2ncc(-c3ccn[nH]3)n2c1 [Example 1, (R)-3-methyl-4-(8-(1-methyl-1H-pyrazol-5-yl)-3-(1H-pyrazol-5-yl)imidazo[1,2-a]pyridin-6-yl)morpholine] |  |  |  | > 10
C[C@@H]1COCCN1c1cc(-c2ccn(CCF)n2)c2cnc(-c3ccn[nH]3)n2n1 [Example 61, (R)-4-(4-(1-(2-fluoroethyl)-1H-pyrazol-3-yl)-7-(1H-pyrazol-5-yl)imidazo[1,5-b]pyridazin-2-yl)-3-methylmorpholine] | 169 |  | 175 | 
Cn1nccc1-c1cc(N2CCOCC2)nn2c(-c3ccn[nH]3)nnc12 [Example 12, 4-(8-(1-methyl-1H-pyrazol-5-yl)-3-(1H-pyrazol-5-yl)-[1,2,4]triazolo[4,3-b]pyridazin-6-yl)morpholine] | > 10000 |  | 3230 | 
Cc1ccc(-c2cc(N3CCOC[C@H]3C)nn3c(-c4cc(C)n[nH]4)ncc23)cn1 [Example 39, (R)-3-methyl-4-(7-(3-methyl-1H-pyrazol-5-yl)-4-(6-methylpyridin-3-yl)imidazo[1,5-b]pyridazin-2-yl)morpholine] | 26.1 |  | 30.7 | 0.003
C[C@@H]1COCCN1c1cc(-c2cccnc2C(F)(F)F)c2cnc(-c3ccn[nH]3)n2n1 [Example 47, (R)-4-(7-(1H-pyrazol-5-yl)-4-(2-(trifluoromethyl)pyridin-3-yl)imidazo[1,5-b]pyridazin-2-yl)-3-methylmorpholine] | 18.2 |  | 20.7 | 0.001
C[C@@H]1COCCN1c1cc(-c2ccnn2C)c2cnc(-c3cc[nH]c3)n2n1 [Example 21, (R)-3-methyl-4-(4-(1-methyl-1H-pyrazol-5-yl)-7-(1H-pyrrol-3-yl)imidazo[1,5-b]pyridazin-2-yl)morpholine] | 244 |  | 155 | 0.00678
C[C@@H]1COC[C@@H](C)N1c1cc(-c2ccnn2C)c2cnc(-c3ccn[nH]3)n2n1 [Example 34, (3R,5R)-3,5-dimethyl-4-(4-(1-methyl-1H-pyrazol-5-yl)-7-(1H-pyrazol-5-yl)imidazo[1,5-b]pyridazin-2-yl)morpholine] | 1520 |  | 953 | 
C[C@@H]1COCCN1c1cc(-c2ccnn2C)c2nnc(-c3ccn[nH]3)n2n1 [Example 15, (R)-3-methyl-4-(8-(1-methyl-1H-pyrazol-5-yl)-3-(1H-pyrazol-5-yl)-[1,2,4]triazolo[4,3-b]pyridazin-6-yl)morpholine] | 1920 |  | 597 | 

Other lines, results leading:

IC50 [1] [nM] | inhibition at 0.05 µM (ATR/ATRIP enzyme) [%] | IC50 [2] [nM] | IC50 (ATR/ATRIP enzyme) [µM] | Structure (SMILES)
116 | 63 | 114 |  | Cc1ccc(C)n1-c1cc(N2CCOC[C@H]2C)nn2c(-c3ccn[nH]3)ncc12 [Example 36, (R)-4-(4-(2,5-dimethyl-1H-pyrrol-1-yl)-7-(1H-pyrazol-5-yl)imidazo[1,5-b]pyridazin-2-yl)-3-methylmorpholine]
156 |  | 133 | 0.011 | Cc1nc(S(C)(=O)=O)ccc1-c1cc(N2CCOC[C@H]2C)nn2c(-c3ccn[nH]3)ncc12 [Example 48, (R)-3-methyl-4-(4-(2-methyl-6-(methylsulfonyl)pyridin-3-yl)-7-(1H-pyrazol-5-yl)imidazo[1,5-b]pyridazin-2-yl)morpholine]
43 |  | 32.9 | 0.006 | Cc1cc(S(C)(=O)=O)ccc1-c1cc(N2CCOC[C@H]2C)nn2c(-c3ccn[nH]3)ncc12 [Example 49, (R)-3-methyl-4-(4-(2-methyl-4-(methylsulfonyl)phenyl)-7-(1H-pyrazol-5-yl)imidazo[1,5-b]pyridazin-2-yl)morpholine]
419 | 90 | 128 |  | Cc1n[nH]cc1-c1cc(N2CCOC[C@H]2C)nn2c(-c3ccn[nH]3)ncc12 [Example 38, (R)-3-methyl-4-(4-(3-methyl-1H-pyrazol-4-yl)-7-(1H-pyrazol-5-yl)imidazo[1,5-b]pyridazin-2-yl)morpholine]
26.3 |  | 41.9 | 0.009 | C[C@@H]1COCCN1c1cc(-c2cccc(C#N)c2)c2cnc(-c3ccn[nH]3)n2n1 [Example 52, (R)-3-(2-(3-methylmorpholino)-7-(1H-pyrazol-5-yl)imidazo[1,5-b]pyridazin-4-yl)benzonitrile]
287 |  | 124 |  | C[C@@H]1COCCN1c1cc(-c2ccn[nH]2)c2cnc(-c3ccn[nH]3)n2n1 [Example 27, (R)-4-(4,7-di(1H-pyrazol-5-yl)imidazo[1,5-b]pyridazin-2-yl)-3-methylmorpholine]
55.2 |  | 68.2 | 0.006 | CC(C)n1nccc1-c1cc(N2CCOC[C@H]2C)nn2c(-c3ccn[nH]3)ncc12 [Example 26, (R)-4-(4-(1-isopropyl-1H-pyrazol-5-yl)-7-(1H-pyrazol-5-yl)imidazo[1,5-b]pyridazin-2-yl)-3-methylmorpholine]
48.8 |  | 49.5 | 0.002 | Cc1cnn(C)c1-c1cc(N2CCOC[C@H]2C)nn2c(-c3ccn[nH]3)ncc12 [Example 41, (R)-4-(4-(1,4-dimethyl-1H-pyrazol-5-yl)-7-(1H-pyrazol-5-yl)imidazo[1,5-b]pyridazin-2-yl)-3-methylmorpholine]
78.8 |  | 84.2 | 0.005 | Cc1ncncc1-c1cc(N2CCOC[C@H]2C)nn2c(-c3ccn[nH]3)ncc12 [Example 45, (R)-3-methyl-4-(4-(4-methylpyrimidin-5-yl)-7-(1H-pyrazol-5-yl)imidazo[1,5-b]pyridazin-2-yl)morpholine]
171 | 71 | 75.4 |  | C[C@@H]1COCCN1c1cc(-c2ccc(S(C)(=O)=O)cc2)c2cnc(-c3ccn[nH]3)n2n1 [Example 35, (R)-3-methyl-4-(4-(4-(methylsulfonyl)phenyl)-7-(1H-pyrazol-5-yl)imidazo[1,5-b]pyridazin-2-yl)morpholine]
17.4 |  | 21.8 | 0.002 | Cc1ccccc1-c1cc(N2CCOC[C@H]2C)nn2c(-c3ccn[nH]3)ncc12 [Example 40, (R)-4-(7-(1H-pyrazol-5-yl)-4-(o-tolyl)imidazo[1,5-b]pyridazin-2-yl)-3-methylmorpholine]
76.3 |  | 76.7 |  | Cc1cnccc1-c1cc(N2CCOC[C@H]2C)nn2c(-c3ccn[nH]3)ncc12 [Example 51, (R)-3-methyl-4-(4-(3-methylpyridin-4-yl)-7-(1H-pyrazol-5-yl)imidazo[1,5-b]pyridazin-2-yl)morpholine]
95.3 |  | 51 |  | C[C@@H]1COCCN1c1cc(-c2ccnc3[nH]ccc23)c2cnc(-c3ccn[nH]3)n2n1 [Example 55, (R)-4-(7-(1H-pyrazol-5-yl)-4-(1H-pyrrolo[2,3-b]pyridin-4-yl)imidazo[1,5-b]pyridazin-2-yl)-3-methylmorpholine]
